These results are taken from a melting point compilation (Tetko et al.; mined from patent text by program, amines drawn as free bases though some values may be those of a salt).

Consider `CC1CC(=O)NN=C1c1ccc2c(c1)N=CS2=O` (stereo not given), for which the melting point is 317 to 319 °C.

Regarding `NC(=O)c1cc(Oc2ccc3c(C(=O)Nc4cccc(C(F)(F)F)c4)cccc3c2)ccn1`, the melting point is 117 to 120 °C.

Regarding `Cc1cc(-c2nc3sc4ccccc4n3c2CC(=O)O)c(C)s1`, the melting point lay within 249 to 250 °C. Take `CCOC(=O)c1cn2c3c(cccc3c1=O)C1CCCCC12` (stereo not given): the melting point is 71 to 73 °C. The value for `Nc1cc(N2CCN(C(=O)COc3cccc4ccccc34)CC2)nc(N)n1` was 205 to 210 °C; that for `O=C(NC1N=C(c2ccccc2F)c2ccccc2NC1=O)c1ccccc1Cl` (racemic) was 224 °C. With `CC(=O)Oc1c(C(C)C)c(-c2ccc(F)cc2)c(O)c(C(C)C)c1C(C)C` the figure was 174 to 177 °C; with `O=C(c1ccccc1)c1c(Cl)cc2n1CCC2C(=O)O` (stereo not given), 190 °C; with `COc1cc2c(=O)c(C(N)=O)c[nH]c2cc1F`, above 300 °C.

Take `CC(C)CN1C(=O)[C@@H](CC(=O)O)N=C(c2ccccc2Cl)c2cc(Cl)ccc21`: the melting point lay in the range of 175 to 178 °C. With `CS(=O)(=O)c1ccc(-n2nc(CCCNC(=O)Nc3cccc(C(F)(F)F)c3)cc2-c2ccccc2)cc1` the figure was 150 to 152 °C; with `O=C1CCc2ccc(Oc3c(F)cc(C(F)(F)F)cc3Cl)cc21`, 75 °C; with `O=C(O)c1ccc(NCC=Cc2ccccc2)cn1`, 178 to 183 °C.

The compound `O=C(c1ccc(-c2ccc(O)cc2)cc1)C1CC=CC1` gave a melting point of 153 to 155 °C. With `CC(C)(C)C(=O)CC(c1ccc(Cl)cc1)S(=O)(=O)c1ccccc1` (stereo not given) the figure was 145 to 146 °C; with `O=C1CCC2CC(O)C(=O)N12` (stereo not given), 135 to 140 °C. The value for `COc1ccc(CCNC(=O)C(=O)NCc2ccc(NC(C)=O)cc2)cc1OC1CCCC1` was 235 to 236 °C; that for `CN1CCC(c2c[nH]c3ccc(NC(=O)c4sccc4Br)nc23)CC1` was 245 to 247 °C.

Compound `Cc1cccc(NC(=O)NCC(=O)N2[C@@H](C(=O)N(C)c3ccccc3)CC[C@H]2c2ccccc2)c1` (racemic) gave a melting point of 210 °C. The value for `O=C(c1ccc(Cl)c(Cl)c1)N1CCCC(c2ccc(Br)s2)=N1` was 138 to 140 °C.

In turn, `N#Cc1cnn2c1NCC=C2c1cccc(C(F)(F)F)c1` had a melting point of 175 to 177 °C. With `O=C1CN=C2C(=O)CC=CC2=N1` the figure was 208 to 211 °C; with `S=C(Cc1ccccc1N1CCOCC1)N1CCOCC1`, 140 °C; with `CN1CCN(c2nc3sc4c(NCc5ccco5)ncnc4c3c3c2COC(C)(C)C3)CC1`, 166 to 168 °C. The value for `Cc1c(C#N)c(=O)oc2c(C)c(O)c(CC(Br)CBr)cc12` (stereo not given) was 175 to 176 °C; that for `O=C(O)C=Cc1cc(OCc2ccccc2)cc(OCc2ccccc2)c1` was 154 to 156 °C.

The compound `Cc1cc(-c2nnc(C(C)(C)C)o2)ccc1[N+](=O)[O-]` registered a melting point of 123 to 125 °C. With `COc1ccc2c(-c3ccccc3)c(C(=O)c3cccc(Cl)c3)sc2c1` the figure was 105 °C; with `CN1C(C)(C)CC(N(CCCCCCN(C2CC(C)(C)N(C)C(C)(C)C2)P2OCC(C)(C)CO2)P2OCC(C)(C)CO2)CC1(C)C`, 103 °C; with `COc1cccc(P(=O)(c2ccccc2)c2ccccc2)c1I`, 186 to 189 °C.

Take `CC(C)Cc1cc2cc(OCC(=O)O)c(Cl)c(Cl)c2s1`: the melting point fell in the range of 164 to 165 °C.

`CNS(=O)(=O)N1CC2(CCN(C(=O)Nc3nnc(-c4ccccc4)s3)CC2)c2ccccc21` returned a melting point of 230 to 231 °C. Compound `COc1ccc2cccc(C(CO)CNC(=O)CF)c2c1` (stereo not given) registered a melting point of 49 to 51 °C. `CCc1ccc(SC(=NNc2ccc(OC)cc2)C(C)=O)cc1` returned a melting point of 106 to 108 °C. With `O=c1[nH]c(COc2ccc(Cl)cc2)nc2nccnc12` the figure was 267 to 269 °C; with `COc1ccc(CCCN2C=CC=C3C2=Nc2cc(C)ccc2S(=O)(=O)N3C)cc1`, 130 to 131 °C. Regarding `Cc1cccc(NC(=O)NCC(=O)N(CC(=O)N(C)c2ccc(F)c(F)c2)c2ccccc2)c1`, the melting point turned out to be 163 °C. With `O=CN1CCC(Oc2c(F)c(F)c(F)c(F)c2F)CC1` the figure was 32 to 34 °C; with `O=C1c2ccccc2COc2cc(Br)ccc21`, 110 to 112 °C; with `Cn1nc2c(-c3ccc(Cl)cc3Cl)cccc2c1-n1ccnc1`, 63 to 89 °C. With `O=C(Nc1ccccc1)Nc1cc(Cl)nc(Cl)c1` the figure was 219 to 222 °C; with `CN(C(=O)c1ccc(-c2ccccc2)cc1)C1N(C)C(c2ccc(F)cc2)=NC1(C(F)(F)F)C(F)(F)F` (stereo not given), 186 to 187 °C; with `CN1Cc2c(Br)cc3c(c2C1)NC(=O)C3=O`, above 300 °C. For the compound `CN1Cc2c(-c3nc(CN4C(=O)c5ccccc5C4=O)no3)ncn2-c2cccc(Cl)c2C1=O`, the melting point lay in the range of 237 to 239 °C. The value for `COc1ccc(Cn2cnc3c(-c4ccco4)nc([N+](=O)[O-])nc32)cc1` was 182 to 183 °C. For `O=C(C1CSC(c2cccnc2)N1)N1CCN(c2ncccn2)CC1` (stereo not given), the melting point was in the range of 156 to 159 °C. With `CCOC(=O)CON=c1c2nccc3cccc(c32)n2cccc12` the figure was 134 °C. With `N=C(Cc1ccc(F)cc1)Nc1ncccc1OCc1ccccc1` the figure was 86 to 93 °C. The value for `COCc1ccc(O)cc1` was 79 to 80 °C. The compound `CC#CCOc1nsc(-c2cccc(F)c2)n1` showed a melting point of 68.7 °C. With `O=CNCCOc1cccc2c1c1ccccc1n2Cc1ccccc1` the figure was 161 to 162 °C.

The compound `CC(C)C1(Cl)Cc2cc(OCC(=O)O)c(Cl)c(Cl)c2C1=O` (stereo not given) showed a melting point of 158 to 159 °C. With `CN1C(=O)C(CC(O)C#N)c2ccccc21` (stereo not given) the figure was 136 to 138 °C; with `CCOC(=O)C1=C(C)NC(C)=C(C(=O)OC(C)C)C1c1cccc([N+](=O)[O-])c1` (stereo not given), 148 °C. The value for `N#Cc1ncn2c(C(F)(F)F)cc(-c3cccnc3)nc12` was 222 °C. In turn, `CCCCC(C(N)=O)n1ccnc1` (stereo not given) displayed a melting point of 90 to 91 °C. Compound `CCn1ncnc1COc1nn2c(-c3ccccc3F)nncc2c1-c1cccs1` yielded a melting point of 190 to 192 °C. In the case of `COc1ccccc1C(Cn1ccnc1)S(=O)(=O)c1ccc(C(=O)O)cc1` (stereo not given), the melting point was 134 to 138 °C. With `Cc1c(CN(CCc2c(I)c3ccccc3n2C)C(=O)C(F)(F)F)ncn1S(=O)(=O)N(C)C` the figure was 141 to 143 °C; with `CC(=O)c1nc2ccc(Oc3ccccc3)cc2cc1O`, 131 to 133 °C. With `c1ccc(COc2ccc([C@H]3CO3)cc2)cc1` the figure was 56 to 61 °C; with `CNc1ncc2c(n1)N(c1ccccc1)C(=O)N(c1c(Cl)cccc1Cl)C2`, 211 to 213 °C; with `Cc1nn(C)c2c(-c3ccc(OC(F)(F)F)cc3)nc(-c3ccc(F)cc3)nc12`, 170 to 172 °C. With `CC(CF)(CF)C(=O)C(Br)Oc1ccc(Cl)cc1` (stereo not given) the figure was 54 to 57 °C. On to `CC(C)(C)c1ccc(S(=O)(=O)/C=C/c2ccccc2)cc1`, for which the melting point came to 95 °C. In the case of `CCCc1cc2c(=O)[nH]c(C(=O)OCC)nc2s1`, the melting point lay within 169 to 170 °C. The value for `CC1(C2=CCC3C4CCC5CC(O)CCC5(C)C4C(O)CC23C)OCCO1` (stereo not given) was 214 to 218 °C; that for `N#Cc1cc([N+](=O)[O-])ccc1OCC(F)(F)F` was 94 °C; that for `O=C1N(Cc2ccc(N3CCOCC3)nc2)c2ccccc2C12COc1cc3c(cc12)OCCO3` (stereo not given) was 117 to 119 °C.

`COc1cccc(OC(=O)N2CCCC2=O)c1` gave a melting point of 45 to 47 °C. Compound `Cc1cc(Oc2cccc(C(F)(F)F)c2)nn1C(=O)Nc1ccc(F)c(F)c1F` returned a melting point of 102 to 104 °C. The value for `CC(C)(C)c1cc(Br)c(C(C)(C)C)cc1N` was 89 to 90 °C. With `COc1ccccc1CN[C@H]1CCCN[C@H]1c1ccoc1` (relative stereo) the figure was above 247 °C; with `CCOCCC(Cc1ccc(NC(=O)NC(=O)c2ccc(C#N)cc2)cc1)C(=O)OC(C)(C)C` (stereo not given), 144 to 145 °C; with `CCCCCNC(=O)c1ccc(N2CCC(N3C(=O)C(F)(F)c4ccccc43)CC2)nn1`, 100 to 102 °C. With `CC1Cc2cc3c(cc2C(C=Cc2ccc(N)cc2)=NN1)OCO3` (stereo not given) the figure was 159 to 161 °C; with `O=C(O)CCC(Cc1ccc(Cl)cc1)(C(=O)C=Cc1ccc(Cl)cc1)c1ccccc1` (stereo not given), 176 to 178 °C. Compound `CC1NC(=O)NN=C1c1ccc(S)cc1` (stereo not given) returned a melting point of 202 to 204 °C. The value for `CC(C)C(=O)c1cnc(C(CC2CCCC2)c2ccc(S(C)(=O)=O)cc2)[nH]1` (stereo not given) was 171 to 172 °C.

Compound `CC(=O)Nc1cc(C(=O)c2ccc(S(=O)(=O)CCO)c(NC(C)=O)c2)ccc1S(=O)(=O)CCO` registered a melting point of 189 to 192 °C. The value for `Cn1nc(-c2ccccc2)c(OC(C)(C)C)c1-c1ccccc1` was 106 to 108 °C; that for `CC1(C)OC(=S)Nc2ccc(-c3cc(F)cc(Br)c3)cc21` was 221 to 222 °C.

Compound `O=C1C=C(O)CC(CCc2ccc(O)cc2)(C2CCCCC2)O1` (stereo not given) yielded a melting point of 52 to 58 °C. The value for `C=Cc1ccc(N2C[C@H](CNC(C)=O)OC2=O)cc1F` was 165 to 166 °C; that for `COc1ccc(/C=C/C2=CCN(Cc3c[nH]c4ncccc34)CC2)cc1` was 201 to 204 °C; that for `NCC1CCc2[nH]c3ccc(Cl)c(Cl)c3c2C1` (stereo not given) was 169 to 170 °C. With `CC1=C(C)c2cc(Br)ccc2Sc2ccccc21` the figure was 108 to 111 °C; with `CNc1nc(-c2cccc(Br)c2)c2cc(OC)c(OC)cc2n1`, 246 to 248 °C. The value for `CC(C=CCC(C)(O)CO)C1CCC2C(O)CCCC12C` (stereo not given) was 87 to 88 °C; that for `O=C(CCCCN1CCOCC1)c1ccc2c(c1)Cc1cc(C(=O)CCCCN3CCOCC3)ccc1-2` was 134 to 136 °C.
